Reference: patent publication US20030148954A1, “Agents and methods for modulating activator protein-1-mediated cellular processes” (Wisconsin Alumni Research Foundation, priority 2001, published 2003)

Tests used:
human Aγ globin promoter = assay: pGL3γLuc reporter, transient transfection of K562 cells; assay type: cell-based
Method: Transient Transfections—K562 cells (5×10^5) were collected by centrifugation at 240×g for 8 min at 4° C. and resuspended in 4 ml of complete IMEM. Plasmid DNAs (1 μg of reporter and 2 μg of effector) were added to 150 μl of IMEM, incubated with Superfect (4 μl/1 μg DNA; Qiagen) for 10 min at room temperature and then added to cells.
For each transfection, cells were incubated for 26 h after transfection and then treated with TPA (final concentration: 5 nM) or the vehicle (DMSO). After incubating for another 12 or 16 h, cells were harvested and assayed for luciferase activity. Luciferase activity was normalized by the protein content of the lysates, determined by Bradford assay using γ-globulin as a standard.

GAL4-c-Jun = GAL4-c-Jun transactivation, transient assays in K562 cells; assay type: cell-based, human; conditions: K562, data not presented
c-Jun = assay: Western blot of c-Jun protein and c-Jun phosphorylation; assay type: cell-based, human
Method: Stable Transfection—K562 cells were stably transfected by electroporation with a Bio-Rad Gene pulser electroporator. Cells (5×10^6) were washed with ice-cold PBS, resuspended in 0.5 ml of ice-cold PBS, mixed with 5 μg linearized plasmid DNA, and subjected to electroporation (960 microfarad; 220 V) in a 0.4 cm-wide electroporation cuvette (BTX). pBabe and pNIC-1 were linearized with NotI. Cells were then added to 20 ml of complete IMEM, grown for 48 h, and diluted in complete IMEM containing 1.5 μg/ml puromycin (pools of K562-Babe and K562-NIC-1 cells). Stably transfected cells were analyzed for erythroid differentiation as soon as the pools were generated by benzidine staining to reduce the probability of phenotypic changes that may result from prolonged growth.
Cells were washed once with ice-cold PBS, cell pellets were resuspended in 30 μl ice-cold PBS and were immediately boiled in 70 μl SDS sample buffer for 10 min. Proteins (10 μl) were resolved by SDS-PAGE on a 10% acrylamide gel and transferred to Immobilon P membrane (Millipore). After blocking membranes in 5% nonfat dry milk in TBST (10 mM Tris pH 8.0, 150 mM NaCl, 0.3% Tween-20), membranes were incubated with primary antibody (diluted 1:1000 in dry milk/TBST). […] Antigen-antibody complexes were detected with ECL Plus™ (Amersham Life Science) according to manufacturer's instructions.

AP-1 = assay: EMSA of AP-1 DNA binding activity in nuclear extracts; set-up: species or system human; conditions: 5 nM TPA 2 hours, nuclear extracts
Method: K562-Babe and K562-NIC-1 cells were harvested by centrifugation for 10 min at 150×g. Cells were washed once with ice-cold PBS and resuspended in 1.5 volumes of nuclei lysis buffer (10 mM Tris-HCl, pH 7.5, 10 mM NaCl, 3 mM MgCl2, and 0.2% Nonidet P-40) on ice for 3 min. Nuclei were collected by centrifugation for 5 min at 600×g. Nuclei were washed by gentle resuspension in 1.5 volumes of nuclei wash buffer (10 mM Tris-HCl, pH 7.5, 10 mM NaCl, and 3 mM MgCl2) and then collected by centrifugation for 4 min at 600×g. […] Nuclei were extracted for 45 min at 4° C. with constant mixing. The suspension was then centrifuged for 30 min at 150,000×g. Aliquots of the supernatant were frozen on dry ice and stored at -80° C. The protein concentration as measured by the Bradford assay, with y-globulin as a standard ranged from 4 to 10 mg/ml. DTT (5 mM), phenylmethanesulfonyl fluoride (0.5 mM), leupeptin (20 μg/ml), β-glycerophosphate (800 μM), sodium vanadate (1 mM), and sodium molybdate (50 μM) were included in all buffers. Electrophoretic Mobility Shift Assay-EMSA assays were done as described previously (54). AP-1 DNA binding activity was measured by EMSA with a double-stranded end-labeled oligonucleotide [NT] containing a high affinity AP-1 binding site. […] DNA binding activity was quantitated by PhosphorImager analysis with ImageQuant software (Molecular Dynamics).

## NIC-1: constitutively active Notch-1 intracellular domain, amino acids 1759-2556 of human Notch-1 with carboxyl-terminal Myc tag, expressed from pBabe-NIC-1
Human Aγ globin promoter; K562, TPA-induced
  effect on TPA-induced activity of pGL3γLuc: without affecting
Human Aγ globin promoter; K562, basal
  increase of basal activity of pGL3γLuc: ~80%
GAL4-c-Jun
  inhibition of GAL4-c-Jun-mediated transactivation: did not significantly inhibit
c-Jun; 5 nM TPA for 0, 5, 10, or 20 min
  effect on time-dependent induction of phosphorylation of c-Jun (serine 73) and JunD: no effect
c-Jun; K562-NIC-1 versus K562-Babe
  effect on c-Jun protein levels: did not affect
AP-1
  AP-1 complexes formed with extracts from K562-NIC-1 versus K562-Babe cells: no apparent qualitative or quantitative differences
